Tests used:
Type in all cases: functional
Settings in all cases: read-out: IZ
Escherichia coli = test: Antimicrobial activity against Escherichia coli at 25 ug/mL by paper disk assay
Bacillus subtilis = test: Antimicrobial activity against Bacillus subtilis at 25 ug/mL by paper disk assay
Candida albicans = test: Antimicrobial activity against Candida albicans at 25 ug/mL by paper disk assay

Work on `Cc1cc(Cc2cc(C)c3cc(C(C)C)ccc(C)c2-3)c2c(C)ccc(C(C)C)cc1-2` yielded a zone of inhibition at 25 µg/mL (Escherichia coli) of 3 mm and a zone of inhibition at 25 µg/mL (Bacillus subtilis) of 3 mm.
Work on `Cc1cc(-c2cc(C)c3cc(C(C)C)ccc(C)c2-3)c2c(C)ccc(C(C)C)cc1-2` yielded a zone of inhibition at 25 µg/mL (Candida albicans) of 5 mm, a zone of inhibition at 25 µg/mL (Escherichia coli) of 3 mm and a zone of inhibition at 25 µg/mL (Bacillus subtilis) of 8 mm.

Reference: ChEMBL document CHEMBL1158301, “Isolation of guaianoid pigments from the gorgonian Calicogorgia granulosa” (1996)
